What was measured:
[1] = tested on: MDA-MB-231 LM2-4 breast cancer cells; assay: CAIX inhibitor with and without paclitaxel: tumor volume, lung metastases (IVIS) and EpCAM+ population (FACS); assay type: in vivo, NOD-SCID mice; details: tumors excised at humane end point, vs vehicle controls, three tumors per group
Description: MDA-MB-231 LM2-4 Luc+ cells were implanted into NOD/SCID mice, tumors were established for 10 days and treatment was then initiated. Paclitaxel was administered by i.v. injection and MST-104 was provided by i.p. injection according to the dosing schedule outlined in the graph (arrows). n=7-8/group. *P<0.02, **P<0.002.
Heat maps indicating metastases are overlaid on grayscale images of the lungs.
The mean total photon flux±SEM for each group is shown.
FIGS. 29A-29E show representative FACS data. NOD-SCID mice mammary fat pad were inoculated with MDA-MB-231 LM2-4 breast cancer cells. Mice were IV dosed with Paclitaxel, or MST-104, or both drugs in combination, or vehicle. At the humane end point, tumours were excised and the viable EpCAM positive population was assessed by FACS.
At the humane end point, tumors were excised and the viable EpCAM positive population was assessed by FACS. […]
All animal procedures and studies were carried out in accordance with protocols approved by the Institution Animal Care Committee at the BC Cancer Research Centre and the University of British Columbia (Vancouver, BC, Canada). […] Primary tumor growth rates were calculated from caliper measurements using the modified ellipsoid formula (L×W2)/2. Tumor formation and metastasis progression was monitored and quantified using bioluminescent imaging as previously described (Lou, McDonald et al. 2011). […]

[2] = tested on: parental 4T1 CD44+CD24−/low cells; assay: E-cadherin immunostaining of FACS-sorted 4T1 populations cultured in hypoxia with or without CAIX inhibitor; assay type: cell-based, mouse; details: hypoxia 5 days, 50 μM MST-104, vs vehicle
Description: FIG. 20 are images of parental 4T1 cells cultured as TSs in normoxia, disaggregated, stained for CD44, CD24 and collected by FACS. Viable CD44+CD24−/low or CD44−CD24+ cells were collected and cultured on glass coverslips in hypoxia for 5 days, with and without 50 μM MST-104, fixed and assessed by immunostaining for expression of E-cadherin.
4T1 TSs were incubated with trypsin, washed once in HF buffer (HBSS containing 2% Fetal Bovine Serum), then stained with anti-CD24-APC and anti-CD44-PECy7 using 0.3 μl of antibody per […] in 100 ul HF, and incubated on ice for 10 min. Following incubation, cells were washed once with HF buffer and resuspended in 300 ul HF buffer containing 4′,6-diamidino-2-phenylindole (DAPI; final concentration, 1 μg/ml). Cells were separated on an Aria™ cell sorter (BD Biosciences, San Jose, Calif., USA). Live cells were gated on the basis of forward and side scatter, and single cells were gated on the basis of forward scatter and pulse width. Gates were determined by analysis of unstained cells, isotype specific controls, and single stains. The CD44+CD24−/low or […] cells were not assessed for purity due to the low numbers of cells obtained. The cell counter of the flow cytometers was used to determine cell numbers. Cells were collected into DMEM media or HF buffer. […]

[3] = tested on: mTORC1 signaling pathway in MDA-MB-231 LM2-4Luc+ tumor cells; assay: Western blot of mTOR pathway components in tumor cells isolated from treated tumor-bearing mice; set-up: species or system NOD/SCID mice; details: in vivo treated tumors
Text: Levels of expression of Actin and GAPDH are shown as loading controls.
To assess the effect of inhibition of CAIX activity on the mTOR pathway by breast cancer cells in vivo, orthotopic human primary breast tumors using MDA-MB-231 LM2-4Luc^+ cells were established in NOD/SCID mice and treated tumor-bearing animals with vehicle or the CAIX-specific inhibitor MST-104. At the experimental end point, primary tumors were removed, dissociated and viable tumor cells lysed and subjected to Western blotting (Lock, McDonald et al. 2012). […] Raptor expression was not regulated following CAIX inhibition in vivo (Raptor/Actin densitometry: Vehicle 0.64 mean±0.05 SEM; U-104 mean 0.69±0.14 SEM).

[4] = tested on: MDA-MB-231 LM2-4Luc+ primary breast tumor xenografts; assay: Primary tumor growth of orthotopic breast tumor xenografts; assay type: in vivo, NOD/SCID mice; details: 38 mg/kg MST-104 or 30 mg/kg MST-205, vs vehicle controls, n=8/group
Description: FIG. 21 is a graphical representation of in vivo tumor growth. MDA-MB-231 LM2-4luc+ were implanted orthotopically into NOD/SCID mice. When tumors reached an average of […], animals received either vehicle, 38 mg/kg MST-104 or 30 mg/kg MST-205. Subsequent tumor growth was monitored. n=8/group.*P<0.02, **P<0.01.
All animal procedures and studies were carried out in accordance with protocols approved by the Institution Animal Care Committee at the BC Cancer Research Centre and the University of British Columbia (Vancouver, BC, Canada). For primary breast tumor xenografts, 2×10^6 MDA-MB-231 LM2-4Luc+ variant cells were suspended in a 50% Matrigel™/PBS solution and implanted orthotopically in 6-8 week-old female NOD.CB17-prkdcscid/J mice as previously described (Lou, McDonald et al. 2011). Therapy was initiated when tumors reached 200 mm^3. Primary tumor growth rates were calculated from caliper measurements using the modified ellipsoid formula (L×W2)/2. Tumor formation and metastasis progression was monitored and quantified using bioluminescent imaging as previously described (Lou, McDonald et al. 2011).
To evaluate the effect of CAIX inhibition on tumor growth and cancer stem cell expansion in vivo, primary breast tumor xenografts were established using a variant of the MDA-MB-231 cell line, MDA-MB-231 LM2-4Luc+. […] Tumor growth was assessed by caliper measurement and IVIS imaging.

[5] = tested on: EpCAM+ population of MDA-MB-231 LM2-4Luc+ tumors; assay: EpCAM+ cancer stem cell population of excised primary tumors by FACS; assay type: in vivo, NOD/SCID mice; details: 27 days, 38 mg/kg MST-104 or 30 mg/kg MST-205, vs vehicle (mean 10% EpCAM+)
Description: FIGS. 22A and 22B are representative FACS plots (FIG. 22A) and a bar graph (FIG. 22B), showing the mean changes in EpCAM+ cells±SEM, from 3 mice. MDA-MB-231 LM2-4luc+ were implanted orthotopically into NOD/SCID mice. When tumors reached an average of […], animals received either vehicle or 38 mg/kg MST-104. After 27 days, primary tumors were removed, dissociated and EpCAM+ cell population assessed by FACS analysis. Statistical significance was confirmed using T-test. ***P<0.0331, **P<0.0224.
FIGS. 23A and 23B are representative FACS plots (FIG. 23A) and a bar graph (FIG. 23B) showing MDA-MB-231 LM2-4luc+ cells that were implanted orthotopically into NOD/SCID mice. […] After 27 days, primary tumors were removed, dissociated and EpCAM+ cell population assessed by FACS analysis. […]
All animal procedures and studies were carried out in accordance with protocols approved by the Institution Animal Care Committee at the BC Cancer Research Centre and the University of British Columbia (Vancouver, BC, Canada). […] Primary tumor growth rates were calculated from caliper measurements using the modified ellipsoid formula (L×W2)/2. Tumor formation and metastasis progression was monitored and quantified using bioluminescent imaging as previously described (Lou, McDonald et al. 2011).
The effect of CAIX inhibition on the primary tumor cancer stem cell population in vivo was quantified. […]

parental 4T1 cell line = assay: Tumorsphere (TS) formation from doubling dilutions, minimum number of cells required to form a TS; assay type: cell-based, mouse; details: parental 4T1, hypoxia, 7 days, 200 μM CAI17 (FIG. 6) vs vehicle
Description: FIG. 6 is a graph of the number of cells required to initiate TS growth. Parental 4T1 were seeded at doubling dilutions and cultured under TS-forming conditions with 200 μM CAI17 or vehicle added, in normoxia or hypoxia. Mean±SEM of three independent experiments is shown. Statistical significance was confirmed using T-test, *P<0.001, **P<0.0060.
For culture in hypoxia, cells were maintained in 1% O2 and 5% CO2 balanced with N2 at 37 degrees C. in a humidified incubator in a sealed anaerobic workstation. Stable depletion of murine CAIX in 4T1 cells was carried out as described previously (Lou, McDonald et al. 2011).
Cultured 4T1 cells were grown as monolayers with twice weekly sub-cultivation in DMEM (Gibco) containing 5% fetal bovine serum (FBS) (Sigma). Subsequently, parental, shNS and shCAIX 4T1 were cultured as Tumor Spheres (TSs) in Mammocult™ media (StemCell Technologies, Vancouver, B.C., Canada) as per the manufacturer's instructions (Lock, McDonald et al. 2012). Alternatively, for spinner culture TS growth, monolayer cells were trypsinized and single-cell suspensions were incubated at 2×10^5 to 4×10^5 cells/ml in sealed glass spinner culture flasks (Bellco, Vineland, N.J.) under constant rotation, at 150 RPM, 37° C. in DMEM (5% FBS) pre-equilibrated to 5% CO2 as previously described (Oloumi, MacPhail et al. 2000). Cultures were grown for up to 3 weeks. […]

## CC(=O)O[C@H]1C(=O)[C@@]2(C)[C@H]([C@H](OC(=O)c3ccccc3)[C@]3(O)C[C@H](OC(=O)[C@H](O)[C@@H](NC(=O)c4ccccc4)c4ccccc4)C(C)=C1C3(C)C)[C@]1(OC(C)=O)CO[C@@H]1C[C@@H]2O [paclitaxel, reference compound]
[1]
  viable EpCAM positive population (mean percentage of EpCAM+ CSC): increase in the mean percentage of EpCAM+CSC

## NS(=O)(=O)c1ccc(NC(=O)Nc2ccc(F)cc2)cc1 [MST-104]
[2]
  E-cadherin staining: robust E-cadherin staining
[1]
  viable EpCAM positive population (mean percentage of EpCAM+ CSC): significant decrease
[3]; Western blot, vs vehicle
  Raptor expression: not regulated
  expression of the mTORC1 component mTOR: abolished
  mTORC1 signaling pathway: inhibition of the mTORC1 signaling pathway
  phosphorylation and expression of 4EBP1: depleted phosphorylation and expression
  phosphorylation of Ser939 TSC2: reduced phosphorylation
[3]; mean ± SEM (vehicle 0.64 ± 0.05)
  Raptor/Actin densitometry: 0.69±0.14
[4]
  primary tumor growth (tumor volume): significant inhibition of primary tumor growth
[5]
  EpCAM+ population of primary tumors: statistically significant reduced EpCAM+ population

## NS(=O)(=O)c1ccc(CCNC(=S)Nc2ccc(-c3c4ccc(=O)cc-4oc4cc(O)ccc34)c(C(=O)O)c2)cc1 [CAI017]
Parental 4T1 cell line
  number of seeding cells required to form a TS: significantly increased

From US10195174B2, “Carbonic anhydrase IX-related markers and use thereof” (SIGNALCHEM LIFESCIENCES CORPORATION, priority 2011, dated 2019)
